Experimental data: patent US20070049564A1 (Wyeth, priority 2005, published 2007)
≈ marks a conversion by molar mass, not a printed value. Where two headings read alike, the source gives them in different places.

Tests used:
[1] = system: P. aeruginosa GC 2214; test: MIC, broth microdilution; settings: Pseudomonas aeruginosa
[2] = system: S. pyogenes GC 4563; test: MIC, broth microdilution; settings: Streptococcus pyogenes
[3] = system: E. coli GC 2233; test: MIC, broth microdilution; settings: Escherichia coli
[4] = system: E. faecium GC 2243; test: MIC, broth microdilution; settings: Enterococcus faecium
[5] = system: E. coli GC 3226; test: MIC, broth microdilution; settings: Escherichia coli
[6] = system: S. aureus GC 2216; test: MIC, broth microdilution; settings: Staphylococcus aureus
[7] = system: E. coli GC 2236; test: MIC, broth microdilution; settings: Escherichia coli
[8] = system: S. aureus GC 6335; test: MIC, broth microdilution; settings: Staphylococcus aureus
[9] = system: E. coli GC 2232; test: MIC, broth microdilution; settings: Escherichia coli
[10] = system: S. aureus GC 6469; test: MIC, broth microdilution; settings: Staphylococcus aureus
[11] = system: E. coli GC 2270; test: MIC, broth microdilution; settings: Escherichia coli
[12] = system: S. aureus GC 6466; test: MIC, broth microdilution; settings: Staphylococcus aureus
[13] = system: E. faecalis GC 2265; test: MIC, broth microdilution; settings: Enterococcus faecalis
[14] = system: Staph.; test: Range of MIC for Staph. strains, including MRSA; settings: Staphylococcus aureus
[15] = system: E. coli; test: Range of MIC for E. coli strains; settings: Escherichia coli, 20 h, read-out: Range of MIC, E. coli (Mouse Serum)
[16] = system: E. coli GC 2234; test: MIC, broth microdilution; settings: Escherichia coli
[17] = system: E. coli GC 2231; test: MIC, broth microdilution; settings: Escherichia coli
[18] = system: E. coli GC 2203; test: MIC, broth microdilution; settings: Escherichia coli
[19] = system: E. coli GC 2271; test: MIC, broth microdilution; settings: Escherichia coli
[20] = system: E. faecium GC 4556; test: MIC, broth microdilution; settings: Enterococcus faecium

MIC ([1]; GC2214, read-out: MINIMAL INHIBITORY CONCENTRATION MIC, Human Serum): > 64 µg/mL
MIC ([1]; GC2214, read-out: MINIMAL INHIBITORY CONCENTRATION MIC, Mouse Serum): 16 µg/mL (≈ 20.7 µM)
MIC ([1]; GC2214, read-out: MINIMAL INHIBITORY CONCENTRATION MIC, Water): > 64 µg/mL
MIC ([2]; GC4563, read-out: MINIMAL INHIBITORY CONCENTRATION MIC, Human Serum): 0.12 µg/mL (≈ 0.155 µM)
MIC ([2]; GC4563, read-out: MINIMAL INHIBITORY CONCENTRATION MIC, Mouse Serum): 0.12 µg/mL (≈ 0.155 µM)
MIC ([2]; GC4563, read-out: MINIMAL INHIBITORY CONCENTRATION MIC, Water): 0.12 µg/mL (≈ 0.155 µM)
MIC ([3]; GC2233, read-out: MINIMAL INHIBITORY CONCENTRATION MIC, Human Serum): 16 µg/mL (≈ 20.7 µM)
MIC ([3]; GC2233, read-out: MINIMAL INHIBITORY CONCENTRATION MIC, Mouse Serum): 0.25 µg/mL (≈ 0.324 µM)
MIC ([3]; GC2233, read-out: MINIMAL INHIBITORY CONCENTRATION MIC, Water): 64 µg/mL (≈ 82.9 µM)
MIC ([4]; GC2243, read-out: MINIMAL INHIBITORY CONCENTRATION MIC, Human Serum): 0.25 µg/mL (≈ 0.324 µM)
MIC ([4]; GC2243, read-out: MINIMAL INHIBITORY CONCENTRATION MIC, Mouse Serum): 0.25 µg/mL (≈ 0.324 µM)
MIC ([4]; GC2243, read-out: MINIMAL INHIBITORY CONCENTRATION MIC, Water): 0.5 µg/mL (≈ 0.648 µM)
MIC ([5]; GC3226, read-out: MINIMAL INHIBITORY CONCENTRATION MIC, Human Serum): 32 µg/mL (≈ 41.5 µM)
MIC ([5]; GC3226, read-out: MINIMAL INHIBITORY CONCENTRATION MIC, Mouse Serum): 0.5 µg/mL (≈ 0.648 µM)
MIC ([5]; GC3226, read-out: MINIMAL INHIBITORY CONCENTRATION MIC, Water): > 64 µg/mL
MIC ([6]; GC2216, read-out: MINIMAL INHIBITORY CONCENTRATION MIC, Human Serum): 0.25 µg/mL (≈ 0.324 µM)
MIC ([6]; GC2216, read-out: MINIMAL INHIBITORY CONCENTRATION MIC, Mouse Serum): 0.25 µg/mL (≈ 0.324 µM)
MIC ([6]; GC2216, read-out: MINIMAL INHIBITORY CONCENTRATION MIC, Water): 0.5 µg/mL (≈ 0.648 µM)
MIC ([7]; GC2236, read-out: MINIMAL INHIBITORY CONCENTRATION MIC, Human Serum): 16 µg/mL (≈ 20.7 µM)
MIC ([7]; GC2236, read-out: MINIMAL INHIBITORY CONCENTRATION MIC, Mouse Serum): 0.25 µg/mL (≈ 0.324 µM)
MIC ([7]; GC2236, read-out: MINIMAL INHIBITORY CONCENTRATION MIC, Water): 64 µg/mL (≈ 82.9 µM)
MIC ([8]; GC6335, read-out: MINIMAL INHIBITORY CONCENTRATION MIC, Human Serum): 2 µg/mL (≈ 2.59 µM)
MIC ([8]; GC6335, read-out: MINIMAL INHIBITORY CONCENTRATION MIC, Mouse Serum): 2 µg/mL (≈ 2.59 µM)
MIC ([8]; GC6335, read-out: MINIMAL INHIBITORY CONCENTRATION MIC, Water): 2 µg/mL (≈ 2.59 µM)
MIC ([9]; GC2232, read-out: MINIMAL INHIBITORY CONCENTRATION MIC, Human Serum): 16 µg/mL (≈ 20.7 µM)
MIC ([9]; GC2232, read-out: MINIMAL INHIBITORY CONCENTRATION MIC, Mouse Serum): 0.25 µg/mL (≈ 0.324 µM)
MIC ([9]; GC2232, read-out: MINIMAL INHIBITORY CONCENTRATION MIC, Water): 64 µg/mL (≈ 82.9 µM)
MIC ([10]; GC6469, read-out: MINIMAL INHIBITORY CONCENTRATION MIC, Human Serum): 1 µg/mL (≈ 1.3 µM)
MIC ([10]; GC6469, read-out: MINIMAL INHIBITORY CONCENTRATION MIC, Mouse Serum): 0.5 µg/mL (≈ 0.648 µM)
MIC ([10]; GC6469, read-out: MINIMAL INHIBITORY CONCENTRATION MIC, Water): 1 µg/mL (≈ 1.3 µM)
MIC ([11]; GC2270, read-out: MINIMAL INHIBITORY CONCENTRATION MIC, Human Serum): 16 µg/mL (≈ 20.7 µM)
MIC ([11]; GC2270, read-out: MINIMAL INHIBITORY CONCENTRATION MIC, Mouse Serum): 0.5 µg/mL (≈ 0.648 µM)
MIC ([11]; GC2270, read-out: MINIMAL INHIBITORY CONCENTRATION MIC, Water): 64 µg/mL (≈ 82.9 µM)
MIC ([12]; GC6466, read-out: MINIMAL INHIBITORY CONCENTRATION MIC, Human Serum): 0.12 µg/mL (≈ 0.155 µM)
MIC ([12]; GC6466, read-out: MINIMAL INHIBITORY CONCENTRATION MIC, Mouse Serum): 0.12 µg/mL (≈ 0.155 µM)
MIC ([12]; GC6466, read-out: MINIMAL INHIBITORY CONCENTRATION MIC, Water): 0.12 µg/mL (≈ 0.155 µM)
MIC ([13]; GC2265, read-out: MINIMAL INHIBITORY CONCENTRATION MIC, Human Serum): 1 µg/mL (≈ 1.3 µM)
MIC ([13]; GC2265, read-out: MINIMAL INHIBITORY CONCENTRATION MIC, Mouse Serum): 0.5 µg/mL (≈ 0.648 µM)
MIC ([13]; GC2265, read-out: MINIMAL INHIBITORY CONCENTRATION MIC, Water): 2 µg/mL (≈ 2.59 µM)
MIC ([14]; MRSA, read-out: Range of MIC, Staph (Mouse Serum)): 0.12 to 2 µg/mL (≈ 0.155 to 2.59 µM)
MIC ([14]; MRSA, read-out: Range of MIC, Staph (Water)): 0.12 to 2 µg/mL (≈ 0.155 to 2.59 µM)
MIC ([14]; read-out: Minimum inhibitory concentration (MIC), Staph (Human Serum)): 0.12 to 2 µg/mL (≈ 0.155 to 2.59 µM)
MIC ([14]; read-out: Minimum inhibitory concentration (MIC), Staph (Water)): 0.12 to 2 µg/mL (≈ 0.155 to 2.59 µM)
MIC [15]: 0.25 to 2 µg/mL (≈ 0.324 to 2.59 µM)
MIC ([16]; GC2234, read-out: MINIMAL INHIBITORY CONCENTRATION MIC, Human Serum): 16 µg/mL (≈ 20.7 µM)
MIC ([16]; GC2234, read-out: MINIMAL INHIBITORY CONCENTRATION MIC, Mouse Serum): 0.5 µg/mL (≈ 0.648 µM)
MIC ([16]; GC2234, read-out: MINIMAL INHIBITORY CONCENTRATION MIC, Water): 64 µg/mL (≈ 82.9 µM)
MIC ([17]; GC2231, read-out: MINIMAL INHIBITORY CONCENTRATION MIC, Human Serum): 16 µg/mL (≈ 20.7 µM)
MIC ([17]; GC2231, read-out: MINIMAL INHIBITORY CONCENTRATION MIC, Mouse Serum): 0.5 µg/mL (≈ 0.648 µM)
MIC ([17]; GC2231, read-out: MINIMAL INHIBITORY CONCENTRATION MIC, Water): 64 µg/mL (≈ 82.9 µM)
MIC ([18]; GC2203, read-out: MINIMAL INHIBITORY CONCENTRATION MIC, Human Serum): 16 µg/mL (≈ 20.7 µM)
MIC ([18]; GC2203, read-out: MINIMAL INHIBITORY CONCENTRATION MIC, Mouse Serum): 0.25 µg/mL (≈ 0.324 µM)
MIC ([18]; GC2203, read-out: MINIMAL INHIBITORY CONCENTRATION MIC, Water): 64 µg/mL (≈ 82.9 µM)
MIC ([19]; GC2271, read-out: MINIMAL INHIBITORY CONCENTRATION MIC, Human Serum): 8 µg/mL (≈ 10.4 µM)
MIC ([19]; GC2271, read-out: MINIMAL INHIBITORY CONCENTRATION MIC, Mouse Serum): 0.25 µg/mL (≈ 0.324 µM)
MIC ([19]; GC2271, read-out: MINIMAL INHIBITORY CONCENTRATION MIC, Water): 32 µg/mL (≈ 41.5 µM)
MIC ([20]; GC4556, read-out: MINIMAL INHIBITORY CONCENTRATION MIC, Human Serum): 1 µg/mL (≈ 1.3 µM)
MIC ([20]; GC4556, read-out: MINIMAL INHIBITORY CONCENTRATION MIC, Mouse Serum): 0.5 µg/mL (≈ 0.648 µM)
MIC ([20]; GC4556, read-out: MINIMAL INHIBITORY CONCENTRATION MIC, Water): 1 µg/mL (≈ 1.3 µM)
SMILES: CCCCCCC(=O)OCOC(=O)N(CC(=O)Nc1cc(N(C)C)c2c(c1O)C(=O)C1=C(O)[C@]3(O)C(=O)C(C(N)=O)=C(O)[C@@H](N(C)C)[C@@H]3C[C@@H]1C2)C(C)(C)C [Example 48, ({[(2-{[(5aR,6aS,7S,10aS)-9-(aminocarbonyl)-4,7-bis(dimethylamino)-1,8,10a,11-tetrahydroxy-10,12-dioxo-5,5a,6,6a,7,10,10a,12-octahydrotetracen-2-yl]amino}-2-oxoethyl)(tert-butyl)amino]carbonyl}oxy)methyl heptanoate]
